# In publication PMC8766756, “Insights on Cancer Cell Inhibition, Subcellular Activities, and Kinase Profile of Phenylacetamides Pending 1H-Imidazol-5-One Variants” (Frontiers in Pharmacology, 2022):
# Like-named read-outs stand apart in the source and are kept apart here.
# Tests used:
# AKT 1/2/3 = assay: Human Phospho-Kinase Array in HL60 cells; type: cell-based; conditions: 10 h (KIM-161 365 nM)
# Source text: We also measured changes in kinase activities of some selected Ser/Thr kinases using the Human Phospho-Kinase Array® kit (R&D Systems) which encompasses phosphoprotein-specific capture antibodies spotted at a certain location (in duplicates) on a nitrocellulose membrane. The signal intensities, detected by a sandwich immunoassay, are proportional to the amount of each phosphokinase in the cell lysate (Figure 8).
# FIGURE 8 Phosphokinase proteome profile of KIM-161 in HL60 cell line. (A) Cells lysates were prepared after 10 h treatment with KIM-161 and applied to the membranes prespotted with the different antibodies. […] The height of each bar represents the average intensity of certain protein signals in treated cells/untreated × 100. Therefore, the dotted line represents the control percentage (100%).
# The phosphorylation profile of 48 kinases was performed using the Proteome Profiler Human Phospho-Kinase Array an antibody array kit, by R&D Systems (Minneapolis, MN, USA). Total protein was extracted from the cell lysates treated with 365 nM KIM-161 for 10 h using the lysis buffer provided in the kit and quantified using the Bio-Rad DC Protein Assay kit (USA). The nitrocellulose membrane set (A&B), pre-spotted with the capture antibodies, was first blocked with 1 ml of Array buffer 1 at RT for 1 h in an 8-well multi-dish on a rocking platform shaker. Approximately 600 µg of protein concentrate (<334 µL) was diluted in the Array buffer 1 to a final volume of 2 ml. 1 ml of the protein sample was added onto the membrane set and incubated overnight at 4°C on a rocking platform shaker. Subsequently, membranes were washed with 15 ml of 1× wash buffer thrice for 5 min at RT, and the excess buffer was completely drained. The membranes A&B were then incubated with appropriate detection antibody cocktails A&B that were reconstituted using the 1× Array buffer 2/3 for 2 h at RT. After the incubation was complete, the membranes were washed with 15 ml of 1× wash buffer thrice for 5 min at RT, and the excess buffer was completely drained. Streptavidin-HRP (1:2000), diluted in 1× Array buffer 2/3, was applied onto the membranes and incubated for 30 min at RT on a rocking platform shaker. The membranes were washed thrice, and Chemi Reagent 1&2 were applied in equal volumes for detection on C-DiGit®Blot Scanner (LI-COR Odyssey Imaging Systems, Lincoln, Nebraska, USA) using the Image Studio 5.0 software.
# [1] = tested on: MCF7 breast cancer cell line; assay: SRB cytotoxicity assay; type: cell-based, human; conditions: MCF7, SRB, 72 h, read-out: IC50 ± SEM MCF7
# Method: (§1) The compounds were screened for their anticancer activities against a variety of cancer cell lines. The cytotoxic effect of the compounds was evaluated using the sulforhodamine B (SRB) cytotoxicity assay for breast cancer line (MCF7) and prostate cancer cell line (PC3) ([Vichai and Kirtikara, 2006]; [Rana et al., 2021]) and 3-(4,5-dimethylthiazol-2-yl)-2,5-diphenyl-2H-tetrazolium bromide (MTT) assay for the colon cancer (HCT116) cell lines ([El-Huneidi et al., 2020]). The CellTiter-Blue® cell viability assay was performed on the various leukemia cell lines, HL60, NB4, and KG1a cells ([Akter et al., 2019]). The IC50 values are illustrated in Table 1.
# (§2) MCF7 (breast), PC3 (prostate), and HCT116 (colon) cancer cell lines were obtained from ATCC, Manassas, VA, USA. Cells were grown in Roswell Park Memorial Institute-1640 (RPMI-1640) medium (Thermo Fisher Scientific, Inc., Waltham, MA, USA), supplemented with 10% heat inactivated fetal bovine serum (FBS), 50 units/mL of penicillin, and […] of streptomycin and maintained at 37°C in a humidified atmosphere containing 5% CO2. The cells were maintained as “monolayer culture” by serial subculturing.
# (§3) Exponentially growing MCF7 and PC3 cells were collected using 0.25% Trypsin-EDTA and were then seeded in 96-well plates at a density of 1,000–2,000 cells/well in 10% FBS and penicillin/streptomycin supplemented RPMI-1640 medium. After 24 h, the cells were treated with different concentrations of the test compounds and incubated for 72 h at 37°C in a humidified atmosphere containing 5% CO2. Next, the cells were fixed by trichloroacetic acid (TCA) (10% final concentration in wells) directly to the wells and incubated for 1 h at 4°C, then the cells were washed with distilled water five times to remove excess TCA, media, serum proteins, and metabolites, followed by air drying. After that, the fixed cells were stained with 0.4% SRB dissolved in 1% acetic acid for 10 min at room temperature, and excess stain was removed by quickly rinsing with 1% acetic acid. The residual acetic acid was removed completely by air drying the plates for 24 h, and the dye was solubilized with Tris buffer (pH = 7.4, 10 mM) for 5 min on a shaker at 1,600 rpm. The optical density of each well was measured spectrophotometrically at 564 nm with an ELISA microplate reader (ChroMate-4300, FL, USA). The IC50 values were calculated according to the equation for Boltzman sigmoidal concentration–response curve using the nonlinear regression fitting models (GraphPad®, Prism Version 5).
# [2] = tested on: PC3 prostate cancer cell line; assay: SRB cytotoxicity assay; type: cell-based, human; conditions: 72 h, read-out: IC50 ± SEM PC3
# Method: as §1, §2, §3
# [3] = Maximum kinetic aqueous solubility; type: physicochemical; conditions: phosphate buffer, pH 7.4, aqueous buffer, kinetic from dmso stock
# Method: Solubility assays were performed using the Millipore MultiScreen® HTS-PFC Filter Plates designed for the solubility assays (EMD Millipore, Billerica, MA). Assays were run in triplicate. The 96-well plates consist of two chambers separated by a filter. Liquid handling was performed using JANUS® Verispan and MTD workstations (Perkin Elmer, Waltham, MA). About 4 µL of the KIM-161 solution (10 mM in DMSO) was added to 196 µL of phosphate buffer (45 mM potassium phosphate, 45 mM sodium acetate, 45 mM ethanolamine, pH = 7.4) in the top chamber to give a final DMSO concentration of 2% and a theoretical drug concentration of 200 µM. The plates were gently shaken for 90 min and then subjected to vacuum. The insoluble drug was captured on the filter. 160 µL of the filtrate was transferred to 96-well Griener UV-Star® analysis plates (Sigma-Aldrich, St. Louis, MO) containing 40 µL of acetonitrile. The test compound concentration in the filtrate is measured by UV absorbance on a Spectromax® Plus microplate reader (Molecular Devices, Sunnyvale, CA) using SoftMax Pro Software v.5.4.5. The absorbances at five wavelengths (280, 300, 320, 340, and 360 nm) were summed to generate the UV signal. Standard curves were generated by adding 4 µL of five concentrations of the test compound in DMSO to 40 µL of acetonitrile in UV Star plates followed by 156 µL of the appropriate solubility medium. […]
smiles,measurement,setting,value
"COc1ccc(/C=C2\N=C(C)N(c3ccc(CC(=O)NCc4ccccc4)cc3)C2=O)cc1 [Compound 4c, (Z)-N-Benzyl-2-(4-(4-(4-methoxybenzylidene)-2-methyl-5-oxo-4,5-dihydro-1H-imidazol-1-yl)phenyl)acetamide]",Normalized to HK,AKT 1/2/3; AKT 1/2/3 spot,0.00
same,Normalized x10K,AKT 1/2/3; AKT 1/2/3 spot,0.00
same,Signal,AKT 1/2/3; AKT 1/2/3 spot,0.00
same,activity at 0.365 µM,"AKT 1/2/3; Homo sapiens, HL-60, AKT 1/2/3 spot, untreated = 100, read-out: % Ctrl",0%
same,IC50,"[1]; Homo sapiens, MCF7, 72 h",1140 nM
same,IC50,[1],1140 ± 190 nM
same,IC50,[2],2140 ± 340 nM
same,IC50,[2]; Homo sapiens,2130 nM
same,solubility at 90 min,"[3]; Max solubility in 2% DMSO/PBS, kinetic, pH 7.4",19.9 µM
same,solubility at 90 min,[3]; read-out: solubility,~20 µM
